# Laboratory results published in patent publication US20260176289A1, “SMALL MOLECULE INHIBITORS OF KRAS PROTEINS” (Merck Sharp & Dohme LLC, priority 2022, published 2026).
# pIC50: −log10 of the molar value.
# Key:
# Format in all cases: biochemical
# [1] = biological target: KRAS-G12C (C51S/C80L/C118S) (Homo sapiens, UniProt P01116, C118S/C51S/C80L/G12C); experiment: SOS-catalyzed nucleotide exchange assay (Procedure A, TR-FRET), KRAS-G12C; conditions: nucleotide exchange, Procedure A; read-out: KRAS G12C GNE IC50
# Outline: (§1)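 TR-FRET readout (520/495 nm) of SOS-driven exchange of Bodipy-GDP for unlabeled GTP (3 mM) on biotinylated, Tb-streptavidin-bound RAS, after 60 min compound preincubation at room temperature. Exchange times and RAS/SOS levels: 60 min for WT (1/40 nM), G12C triple mutant (3/40 nM), NRAS (1.25/40 nM); 90 min for G12V (1.25/160 nM). Four-parameter logistic fits on normalized effect.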
# KRAS-G12V = KRAS-G12V (Homo sapiens, UniProt P01116, G12V); experiment: SOS-catalyzed nucleotide exchange assay (Procedure A, TR-FRET), KRAS-G12V; conditions: nucleotide exchange, read-out: KRAS G12V GNE IC50
# Outline: as §1
# KRAS-G13D = KRAS-G13D (Homo sapiens, UniProt P01116, G13D); experiment: SOS-catalyzed nucleotide exchange assay (Procedure A, TR-FRET), KRAS-G13D; conditions: nucleotide exchange, Procedure A; read-out: KRAS G13D GNE IC50
# NRAS = NRAS (Homo sapiens, UniProt P01111); experiment: SOS-catalyzed nucleotide exchange assay (Procedure A, TR-FRET), NRAS; conditions: read-out: NRAS GNE IC50
# Text: Procedure for SOS-Catalyzed Nucleotide Exchange Assay for KRAS-WT, G12C/D/V, G13D, HRAS, and NRAS (Procedure A)
# Recombinant KRAS-G12C protein used in this assay has an additional triple mutation (C51S/C80L/C118S). Whereas KRAS-WT, G12D/V, G13D, HRAS and NRAS are in context of their WT protein sequence background. Specifically, the SOS-catalyzed nucleotide exchange assay utilizes a preformed TR-FRET complex containing a specific biotinylated RAS protein (KRAS-WT, G12C/V/D, G13D, HRAS, NRAS; described above) with Bodipy-GDP, and Terbium-streptavidin. Compounds are preincubated with this complex for 60 minutes. Subsequently, recombinant human SOS protein and unlabeled GTP are added to initiate the exchange reaction. Small molecule inhibitors stabilize the Bodipy-GDP complex whereas the untreated protein rapidly exchanges Bodipy-GDP for unlabeled GTP resulting in reduced TR-FRET signal.
# To assemble the preformed TR-FRET complexes, each biotinylated RAS protein is diluted to 2 μM in an EDTA Buffer (20 mM HEPES pH 7.5, 50 mM sodium chloride, 10 mM EDTA, and 0.01% Tween) and incubated at room temperature for one hour. This mixture is then further diluted to 90 nM in an Assay Buffer (20 mM HEPES pH 7.5, 150 mM sodium chloride, 10 mM magnesium chloride, and 0.005% Tween) containing 15 nM of Terbium-Streptavidin (Invitrogen, catalog #PV3577) and 900 nM of Bodipy-GDP (Invitrogen, catalog #G22360) and incubated at room temperature for six hours. It should be noted that this preformed TR-FRET complex for each of the RAS protein were made ahead of time, aliquoted and stored at −80° C. until the day of the experiment.
# Each test compound (10 mM stock in DMSO) is diluted in DMSO to make a final-10-point, 3-fold dilution and is acoustically dispensed into a 384-well assay plate (Corning, catalog #3820) using an Echo 550 (Labcyte). Each well of the assay plate receives 3 μL of a specific 3×RAS preformed TR-FRET complex and 3 μL of Assay Buffer and is incubated at room temperature for 60 minutes (preincubation time). Each well then receives 3 μL of 3×recombinant human SOS protein and GTP (Sigma, G8877) in Assay Buffer and is incubated at room temperature for 30 minutes (G13D), 60 minutes (KRAS WT/G12C/D, H/NRAS) or 90 minutes for G12V. […]
# The time-resolved fluorescence resonance energy transfer (TR-FRET) signal is measured on an Envision (PerkinElmer) plate reader: Excitation filter=340 nm; emission 1=495 nm; emission2=520 nm; dichroic mirror=D400/D505; delay time=[…]. The signal of each well is determined as the ratio of the emission at 520 nm to that at 495 nm. Percent effect of each well is determined after normalization to control wells containing DMSO (no effect) or a saturating concentration of inhibitor (max effect). […]
# Chain of KRAS-G12C (C51S/C80L/C118S) (P01116 with tags, fused parts or gaps isoform P01116-2 G12C/C51S/C80L/C118S): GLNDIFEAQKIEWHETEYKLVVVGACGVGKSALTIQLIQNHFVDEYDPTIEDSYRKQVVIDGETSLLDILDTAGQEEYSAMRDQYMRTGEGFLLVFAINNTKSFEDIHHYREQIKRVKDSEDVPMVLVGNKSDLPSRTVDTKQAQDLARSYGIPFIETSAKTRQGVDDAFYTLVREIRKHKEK
# Chain of NRAS (P01111 with tags, fused parts or gaps): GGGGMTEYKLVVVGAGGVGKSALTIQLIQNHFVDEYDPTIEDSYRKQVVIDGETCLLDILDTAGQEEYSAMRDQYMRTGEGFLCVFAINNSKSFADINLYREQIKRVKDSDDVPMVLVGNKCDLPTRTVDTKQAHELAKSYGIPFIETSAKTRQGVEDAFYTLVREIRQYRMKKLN
# Chain of KRAS-G12V (P01116 with tags, fused parts or gaps isoform P01116-2 G12V): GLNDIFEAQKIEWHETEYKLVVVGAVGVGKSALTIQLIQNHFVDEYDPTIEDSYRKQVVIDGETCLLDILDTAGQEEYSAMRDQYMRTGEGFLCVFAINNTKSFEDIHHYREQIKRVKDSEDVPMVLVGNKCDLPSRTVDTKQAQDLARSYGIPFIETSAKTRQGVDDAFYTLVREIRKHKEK
# Chain of KRAS-G13D (P01116 with tags, fused parts or gaps isoform P01116-2 G13D): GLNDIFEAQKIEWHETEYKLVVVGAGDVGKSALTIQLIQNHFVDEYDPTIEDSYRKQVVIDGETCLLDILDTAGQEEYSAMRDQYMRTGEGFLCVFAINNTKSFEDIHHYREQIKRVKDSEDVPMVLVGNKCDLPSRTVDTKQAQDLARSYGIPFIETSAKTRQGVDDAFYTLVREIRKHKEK
compound,measurement,setting,value
"C#Cc1c(F)ccc2cc(O)cc(-c3nccc4c5c(N6CCOC[C@@](C)(O)C6)nc(OC[C@@]67CCCN6C[C@H](F)C7)nc5n(C)c34)c12 [Ex-18, (S)-4-(8-(8-ethynyl-7-fluoro-3-hydroxynaphthalen-1-yl)-2-(((2R,7aS)-2-fluorotetrahydro-1H-pyrrolizin-7a(5H)-yl)methoxy)-9-methyl-9H-pyrido[4′,3′:4,5]pyrrolo[2,3-d]pyrimidin-4-yl)-6-methyl-1,4-oxazepan-6-ol]",pIC50,[1],7.98
same,pIC50,KRAS-G12V,8.41
same,pIC50,KRAS-G13D,8.58
same,pIC50,NRAS,5.05
